This passage reports melting point results from a melting point compilation (Tetko et al.).

The compound `COc1nc(C)nc(N)n1` displayed a melting point of 260 °C. As for `CN(C)S(C)(=O)=O`, the melting point lay within 49 to 50 °C. Under `OCCCCCCCCCCl` stands 28 °C; under `O=[N+]([O-])c1coc2ccc(O)cc12`, 164 to 165 °C. Under `O=C(c1ccc(C(=O)C(Cl)Cl)cc1)C(Cl)Cl` stands 143 °C. Under `Cc1ccc(NC(=O)C=CC(=O)O)cc1` stands 205 °C. The compound `Fc1ccc(-c2cc3ccccc3[nH]2)cc1` showed a melting point of 190 to 192 °C.

In the case of `CS(=O)(=O)c1ccc(Br)cc1`, the melting point fell in the range of 102 to 105 °C. In turn, `CCOC(=O)C(CC)c1ccc(C)cc1` (configuration not stated) displayed a melting point of 130 °C.

For `O=C(Nc1ccc(Br)cc1)c1cc(Br)ccc1O`, the melting point was determined as 242 °C. Under `O=[N+]([O-])c1ccc(S(=O)(=O)N2CCCC2)cc1` stands 151 to 153 °C. On to `COC(=O)C1=C(C)NC(C)=C(C(=O)OC)C1c1ccco1`, for which the melting point is 186 °C. The compound `C[C@]12CC[C@@H](O)[C@H](O)[C@@H]1CC[C@@H]1[C@@H]2CC[C@]2(C)C(=O)CC[C@@H]12` came in with a melting point of 233 °C. Regarding `CCCCCCCCCCCCCCCCCC(=O)Cl`, the melting point is 23 °C. In the case of `COc1ccc(C(=O)Cc2ccccc2)cc1OC`, the melting point lay in the range of 87 to 88 °C.

`Br/C(=C(/Br)c1ccccc1)c1ccccc1` registered a melting point of 228 °C. Under `COc1ccc(CCN2CCC(Nc3nc4ccccc4n3Cc3ccc(F)cc3)CC2)cc1` stands 149 °C. In the case of `Nc1ccc(Oc2ccc(N)cc2)cc1`, the melting point turned out to be 191 °C. `CCCCOC(=O)C(C)Oc1ccc(Oc2ccc(C(F)(F)F)cn2)cc1` (configuration not stated) came in with a melting point of 13 °C. `Clc1ccc(N2CCNCC2)cc1Cl` came in with a melting point of 63 °C. The compound `O=C(OC1CCCCC1)c1ccccc1C(=O)OC1CCCCC1` yielded a melting point of 66 °C. The compound `N=C(N)NC(=N)Nc1ccccc1` registered a melting point of 143 °C. Regarding `COc1ccc2cc(Br)ccc2c1CCl`, the melting point was 144 to 146 °C.

For `CC12CCC(C=CC1=O)C2(C)C` (configuration not stated), the melting point was 174 °C. `COc1ncc(F)c2nc(S(=O)(=O)Nc3c(F)cccc3F)nn12` gave a melting point of 194 °C. Under `CCCNC(=O)NCCC` stands 105 °C; under `N#CCCN1C(=O)COc2ccc(Cl)cc21`, 131 °C; under `COc1cccc(N(C)C(=S)Oc2cccc(C(C)(C)C)c2)n1`, 86 °C. Under `Nc1nc2ccc(OC(F)(F)F)cc2s1` stands 119 °C; under `c1ccc(-c2ncoc2-c2ccccc2)cc1`, 44 °C. `CCCCOc1ccc(/N=N/c2ccc(CCCC)cc2)cc1` showed a melting point of 64 to 66 °C. Under `Clc1cccnc1-c1ccnc(Cl)c1Cl` stands 169 °C; under `Cc1ccc(NC(=O)N(C)C)cc1Cl`, 148 °C. Consider `O=[N+]([O-])c1ccc2c(O)c(-c3cccc(-c4[nH]c5cc([N+](=O)[O-])ccc5c4O)c3)[nH]c2c1`, for which the melting point is 266 °C. On to `O=[N+]([O-])c1ccc(N=Nc2ccc(O)c3ccccc23)cc1`, for which the melting point was 275 °C.

Take `Cc1ccc2cc(N)ccc2n1`: the melting point turned out to be 190 °C.

`FC(F)(F)c1ccc(-n2cc[nH]c2=S)cc1` gave a melting point of 194 to 196 °C. Consider `O=C(O)/C(=C/c1cccc2ccccc12)c1ccccc1`, for which the melting point lay within 160 to 161 °C. `CCCC(=O)OC1(C(=O)CCl)C(C)CC2C3CCC4=CC(=O)C=CC4(C)C3(F)C(=O)CC21C` (configuration not stated): the melting point is 95 °C. As to `O=C(/C=C/C(=O)c1ccccc1)c1ccccc1`, the melting point lay within 110 to 111 °C. Under `Cc1ccc(Sc2ccc(C=O)cc2[N+](=O)[O-])cc1` stands 138 to 141 °C.

For the compound `C1COCCOCCOCCOCCN1`, the melting point lay in the range of 35 to 37 °C.
